Measured values published in patent US10239887B2, “Positive allosteric modulators of the muscarinic acetylcholine receptor M4” (Vanderbilt University, priority 2016, dated 2019).
Where a name gives a salt, the structure may show the parent alone. Read-outs that look alike come from different tables or passages of the source.

Target: T1, human mAChR M4 (Homo sapiens, UniProt P08173)
T1 sequence (P08173 1-479): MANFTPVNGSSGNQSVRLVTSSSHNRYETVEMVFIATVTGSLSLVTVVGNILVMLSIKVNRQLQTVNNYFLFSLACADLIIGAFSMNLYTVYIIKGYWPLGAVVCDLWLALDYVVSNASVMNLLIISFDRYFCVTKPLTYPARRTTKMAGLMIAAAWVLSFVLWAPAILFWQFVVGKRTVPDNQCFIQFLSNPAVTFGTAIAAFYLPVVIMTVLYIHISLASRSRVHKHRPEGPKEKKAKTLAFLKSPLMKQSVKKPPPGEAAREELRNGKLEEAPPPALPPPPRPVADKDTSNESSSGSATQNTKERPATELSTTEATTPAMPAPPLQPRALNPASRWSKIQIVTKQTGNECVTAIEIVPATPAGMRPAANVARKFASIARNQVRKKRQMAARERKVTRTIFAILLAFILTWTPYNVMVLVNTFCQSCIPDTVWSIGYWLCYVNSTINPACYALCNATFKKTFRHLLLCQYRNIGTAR
Assay: mAChR M4 cell-based functional assay (calcium flux), human M4
Conditions: for Emax: % ACh maximum at 30 μM

[1] = Human M4 EC50 (nM), Table 10, calcium flux, PAM activity with EC20 acetylcholine
[2] = Human M4 EC50, CHO-K1 hM4-Gqi5 cells, calcium flux, increase in EC20 acetylcholine response
[3] = Human M4 EC50 (nM), Table 11, calcium flux, PAM activity with EC20 acetylcholine

Compound	Emax (Table 10)	EC50 [1]	further results
Cc1nnc2sc3c(NC4CN(c5ncc(F)cn5)C4)ncnc3c2c1C [Compound 84, N-[1-(5-fluoropyrimidin-2-yl)azetidin-3-yl]-3,4-dimethyl-pyrimido [4′,5′:4,5]thieno[2,3-c] pyridazin-8-amine]	64.9%		EC50: 27.6 nM
Cc1nnc2oc3c(NCc4ccc(C5(O)CCC5)cc4)ncnc3c2c1C [Compound 298, 1-[4-[[(3,4-dimethylpyrimido [4′,5′:4,5]furo[2,3-c]pyridazin-8-yl)amino]methyl]phenyl]cyclobutanol]	58.2%	862 nM	
Cc1cc(C)c2c(n1)oc1c(NC3CC3c3ccc(F)c(F)c3)ncnc12 (stereo not shown) [Compound 61, hydrochloride]			Emax (Human M4): 56.3%; EC50 [2]: 3380 nM
Cc1cnc2sc3c(N4CCC(F)(F)C4)ncnc3c2c1 [Compound 16, 4-(3,3-difluoropyrrolidin-1-yl)-8-methylpyrido [3′,2′:4,5]thieno[3,2-d] pyrimidine]			Emax (Human M4): 360%; EC50 [2]: 377 nM
Cc1nnc2sc3c(NC4CC5(C4)CN(c4ncc(Cl)cc4Cl)C5)ncnc3c2c1C [Compound 162, N-[2-(3,5-dichloro-2-pyridyl)-2-azaspiro[3.3]heptan-6-yl]-3,4-dimethyl-pyrimido[4′,5′:4,5]thieno [2,3-c]pyridazin-8-amine]	48.3%	5630 nM	
CNc1ncnc2c1oc1nc(C)c(Cl)c(C)c12 [Compound 44, 8-chloro-N,7,9-trimethyl-pyrido[3′,2′:4,5]furo[3,2-d]pyrimidin-4-amine hydrochloride]			Emax (Human M4): 39.8%; EC50 [2]: 1690 nM
Cc1cnc2sc3c(N4CCCC4)ncnc3c2c1 [Compound 15, 8-methyl-4-(pyrrolidin-1-yl) pyrido[3′,2′:4,5]thieno [3,2-d]pyrimidine]			Emax (Human M4): 40%
Cc1nnc2oc3c(NCc4ccc(C5(O)CCC5)cc4)ncnc3c2c1C [Compound 64, 1-[4-[[(3,4-dimethylpyrimido [4′,5′:4,5]furo[2,3-c]pyridazin-8-yl)amino]methyl]phenyl] cyclobutanol]			Emax (Human M4): 58.2%; EC50 [2]: 862 nM
Cc1nnc2sc3c(NCc4ccc(-c5ccnn5C)cc4F)ncnc3c2c1C [Compound 344, N-[[2-fluoro-4-(2-methylpyrazol-3-yl)phenyl]methyl]-3,4-dimethyl-pyrimido[4′,5′:4,5]thieno [2,3-c]pyridazin-8-amine]			EC50 [3]: 824 nM; Emax (Table 11): 70.9%
COc1cc(F)c(CNc2ncnc3c2sc2nnc(C)c(C)c23)c(F)c1 [Compound 121, N-[(2,6-difluoro-4-methoxy-phenyl)methyl]-3,4-dimethyl-pyrimido [4′,5′:4,5]thieno[2,3-c] pyridazin-8-amine]	100%	579 nM	
CCC(C)(O)c1ccc(CNc2ncnc3c2sc2nnc(C)c(C)c23)cc1 (stereo not shown) [Compound 116, 2-[4-[[(3,4-dimethylpyrimido [4′,5′:4,5]thieno[2,3-c]pyridazin-8-yl)amino]methyl]phenyl]butan-2-ol]	50%	151 nM	
Cc1nc2sc3c(NCc4ccc5c(c4)CC(C)(C)O5)ncnc3c2c(C)c1Cl [Compound 270, 8-chloro-N-[(2,2-dimethyl-3H-benzofuran-5-yl)methyl]-7,9-dimethyl-pyrido[3′,2′:4,5]thieno [3,2-d]pyrimidin-4-amine dihydrochloride]	22%		EC50 (Human M4 EC50 (nM), Table 10, unit μM (bounds)): > 10000 nM
COCCNC(=O)c1ccc(CNc2ncnc3c2sc2nnc(C)c(C)c23)cc1Cl [Compound 324, 2-chloro-4-[[(3,4-dimethylpyrimido [4′,5′:4,5]thieno[2,3-c]pyridazin-8-yl)amino]methyl]-N-(2-methoxyethyl) benzamide]			EC50 [3]: 164 nM; Emax (Table 11): 84%
Cc1nnc2sc3c(N4CC[C@H](Oc5ccnc(C(F)(F)F)c5)C4)ncnc3c2c1C [Compound 331, 3,4-dimethyl-8-[(3S)-3-[[2-(trifluoromethyl)-4-pyridyl]oxy]pyrrolidin-1-yl]pyrimido [4′,5′:4,5]thieno[2,3-c] pyridazine]			EC50 [3]: 142 nM; Emax (Table 11): 80.6%
Cc1nnc2sc3c(NCc4ccc(C(=O)NC5CC(F)(F)C5)cc4)ncnc3c2c1C [Compound 152, N-(3,3-difluorocyclobutyl)-4-[[(3,4-dimethylpyrimido [4′,5′:4,5]thieno[2,3-c]pyridazin-8-yl)amino]methyl]benzamide]	86.9%	59.2 nM	
CCC(O)(CC)c1ccc(CNc2ncnc3c2sc2nnc(C)c(C)c23)cc1 [Compound 144, 3-[4-[[(3,4-dimethylpyrimido [4′,5′:4,5]thieno[2,3-c]pyridazin-8-yl)amino]methyl]phenyl]pentan-3-ol]	78.3%	986 nM	

Compound	Emax (Table 10)	EC50 [1]	further results
Cc1ncc(CNc2ncnc3c2sc2ncc(Cl)c(C)c23)cn1 [Compound 238, 8-chloro-9-methyl-N-[(2-methylpyrimidin-5-yl)methyl]pyrido [3′,2′:4,5]thieno[3,2-d] pyrimidin-4-amine dihydrochloride]	61%	382 nM	
Cc1c(Cl)cnc2sc3c(NC4CN(c5cc(Cl)ncc5Cl)C4)ncnc3c12 [Compound 231, 8-chloro-N-[1-(2,5-dichloro-4-pyridyl)azetidin-3-yl]-9-methyl-pyrido [3′,2′:4,5]thieno[3,2-d] pyrimidin-4-amine]	44.3%	3710 nM	
Cc1nnc2oc3c(NC4CCC4)ncnc3c2c1C [Compound 303, N-cyclobutyl-3,4-dimethyl-pyrimido [4′,5′:4,5]furo[2,3-c]pyridazin-8-amine]	54.8%	1530 nM	
Cc1nnc2sc3c(NCc4ccc(C(=O)NC5CCCC5)cc4)ncnc3c2c1C [Compound 153, N-cyclopentyl-4-[[(3,4-dimethylpyrimido [4′,5′:4,5]thieno[2,3-c]pyridazin-8-yl)amino]methyl]benzamide]	87.4%	114 nM	
Cc1cc(O[C@H]2CN(c3ncnc4c3sc3nnc(C)c(C)c34)C[C@@H]2C)ccn1 [Compound 358, 3,4-dimethyl-8-[(3S,4R)-3-methyl-4-[(2-methyl-4-pyridyl)oxy]pyrrolidin-1-yl]pyrimido[4′,5′:4,5] thieno[2,3-c] pyridazine dihydrochloride]			EC50 [3]: 276 nM; Emax (Table 11): 76%
Cc1cc(C)c2c(n1)sc1c(NC3CCC3)ncnc12 [Compound 200, N-cyclobutyl-7,9-dimethyl-pyrido [3′,2′:4,5]thieno[3,2-d] pyrimidin-4-amine]	75.5%	359 nM	
Cc1nnc2sc3c(NC4CC4)ncnc3c2c1C [Compound 25, N-cyclopropyl-3,4-dimethylpyrimido [4′,5′:4,5]thieno[2,3-c] pyridazin-8-amine]			Emax (Human M4): 79%; EC50 [2]: 468 nM
Cc1nnc2sc3c(N4CC[C@H](Oc5ccccn5)C4)ncnc3c2c1C [Compound 359, 3,4-dimethyl-8-[(3S)-3-(2-pyridyloxy)pyrrolidin-1-yl]pyrimido[4′,5′:4,5]thieno[2,3-c]pyridazine dihydrochloride]			EC50 [3]: 488 nM; Emax (Table 11): 31.8%
Cc1nnc2sc3c(NCc4ccc(Oc5ccccn5)cc4)ncnc3c2c1C [Compound 110, 3,4-dimethyl-N-[[4-(2-pyridyloxy)phenyl]methyl] pyrimido[4′,5′:4,5]thieno [2,3-c]pyridazin-8-amine hydrochloride]	59.3%	971 nM	
Cc1nnc2sc3c(NCc4ccc(-c5nccs5)cc4)ncnc3c2c1C [Compound 326, 3,4-dimethyl-N-[(4-thiazol-2-ylphenyl)methyl]pyrimido[4′,5′:4,5] thieno[2,3-c]pyridazin-8-amine]			EC50 [3]: 1070 nM; Emax (Table 11): 64.9%
Cc1nnc2oc3c(NCc4ccc(C(C)(C)O)nc4)ncnc3c2c1C [Compound 308, 2-[5-[[(3,4-dimethylpyrimido [4′,5′:4,5]furo[2,3-c]pyridazin-8-yl)amino]methyl]-2-pyridyl]propan-2-ol]	59.5%	9160 nM	
CC(=O)N1CC(Nc2ncnc3c2sc2nnc(C)c(C)c23)C1 [Compound 35, 1-(3-((3,4-dimethylpyrimido [4′,5′:4,5]thieno[2,3-c]pyridazin-8-yl)amino)azetidin-1-yl)ethan-1-one]			Emax (Human M4): 79%; EC50 [2]: 53 nM
Cc1nc2oc3c(NCc4ccc(S(C)(=O)=O)cc4)ncnc3c2c(C)c1Cl [Compound 248, 8-chloro-7,9-dimethyl-N-[(4-methylsulfonylphenyl)methyl]pyrido[3′,2′:4,5] furo[3,2-d]pyrimidin-4-amine hydrochloride]	45.5%	1250 nM	
Cc1nc2sc3c(NC4CN(c5ncc(C(F)(F)F)cn5)C4)ncnc3c2c(C)c1Cl [Compound 272, 8-chloro-7,9-dimethyl-N-[1-[5-(trifluoromethyl)pyrimidin-2-yl]azetidin-3-yl]pyrido[3′,2′:4,5] hieno[3,2-d]pyrimidin-4-amine dihydrochloride]	60.6%	3620 nM	
Cc1nnc2oc3c(NC4CC(F)(F)C4)ncnc3c2c1C [Compound 306, N-(3,3-difluoro-cyclobutyl)-3,4-dimethyl-pyrimido [4′,5′:4,5]furo[2,3-c]pyridazin-8-amine]	57.9%	1750 nM	
